{
  "source": "patent US20110152268A1",
  "about": "“NOVEL PHARMACEUTICAL COMPOSITION FOR TREATING NOCICEPTIVE PAIN” (ASTELLAS PHARMA INC., priority 2008, published 2011)",
  "key": {"[1]": {"test_system": "Adjuvant-Derived Arthritis Rat", "assay": "Inhibitory effect on the difference in hindlimb weight of adjuvant-derived arthritis rat", "type": "in vivo", "procedure": "In this test, female Lewis rats (7-8 weeks old) were used. 50 μL of H37 Ra (manufactured by DIFCO Co.), Mycobacterium tuberculosis suspended with liquid paraffin to a concentration of 10 mg/mL was subcutaneously administered around the right hind footpad. […] The number of rats of each group was 8. The solvent herein used was distilled water. When taking into consideration the period for obtaining a maximum in-blood-concentration, at one hour after administration, the difference in weight between the left and right hindlimbs was measured using an incapacitance tester (manufactured by Linton Instrumentation, Norfolk, UK)."}, "[2]": {"test_system": "Bradykinin-Induced Knee Pain Model", "method": "The induction and evaluation of the present model was basically carried out in accordance with Ann Rheum Dis, 52, 817-822 (1993). A diluted solution, which was diluted with a solvent so as to obtain a vehicle and the compound A having a predetermined concentration, was orally administered to male SD rats (6-7 week old, obtained by Charles River Laboratories Japan, Inc.). This test was carried out for 10 rats of each group. The solvent herein used was distilled water. […] The inhibition rate of the drug to be tested was calculated by setting the difference in weight of a vehicle-administered group to an inhibition rate of 0% and the difference in weight of a normal group to an inhibition rate of 100%. Significant difference testing was carried out by between-group comparison between the vehicle group and the drug group using a Dunnett's t-test after ANOVA testing."}, "[3]": {"test_system": "Monoiodoacetate (MIA)-Induced Osteoarthritis Model", "conditions": "rats, 3 weeks after MIA administration, inflammation already recovered; cited from earlier work"}, "[4]": {"test_system": "Bradykinin-Induced Knee Pain Model", "conditions": "as a joint injection; cited from earlier work"}, "[5]": {"test_system": "Monoiodoacetate (MIA)-Induced Osteoarthritis Model", "assay": "Analgesic action in monoiodoacetate (MIA)-induced osteoarthritis model (difference in hindlimb weight)", "type": "in vivo, rat", "conditions": "male SD rats, 3 weeks after MIA, oral, compound A 30 mg/kg, 1 hour after administration", "procedure": "The present disease model was produced based on the description of Toxicol Pathol 31 (6), 619-624 (2003). […] MIA was dissolved in physiological saline and 50 μl of the resulting solution was administered with a needle (26 gauge, 0.5 inch). […] The solvent herein used was distilled water. One hour after administration, the difference in weight between the left and right hindlimbs was measured using an incapacitance tester (manufactured by Linton Instrumentation, Norfolk, UK)."}, "[6]": {"conditions": "compound A 10 mg/kg vs duloxetine 30 mg/kg, oral"}},
  "note": "Where a name gives a salt, the structure may show the parent alone. Read-outs that look alike come from different tables or passages of the source.",
  "data": [
    {"molecule": "CNCC[C@H](Oc1cccc2ccccc12)c1cccs1", "note": "[duloxetine hydrochloride, (S)—N-methyl-γ-(1-naphthalenyloxy)-2-thiophenepropanamine]", "values": [
      {"measurement": "improvement effect (inhibition rate) on the difference in hindlimb weight", "setting": "[1]; rat, in vivo, po, 30 mg/kg", "value": 63, "unit": "%"}
    ]},
    {"molecule": "C1=Cc2cccc(OCC3CNCCO3)c2C1", "note": "(single isomer, unassigned; (+)) [compound A, (+)-2-[(inden-7-yloxy)methyl]morpholine]", "values": [
      {"measurement": "improvement effect relative to duloxetine", "setting": "[2]; [6]", "value": "~3", "unit": "fold"},
      {"measurement": "improvement effect relative to duloxetine", "setting": "[1]; [6]", "value": "about 3 fold"}
    ]},
    {"molecule": "COc1ccc2c(c1)c(CC(=O)O)c(C)n2C(=O)c1ccc(Cl)cc1", "note": "[indomethacin]", "values": [
      {"measurement": "effectiveness of NSAIDs on pain in this stage of the MIA model", "setting": "[3]", "value": "not effective"}
    ]},
    {"molecule": "O=C(O)Cc1ccccc1Nc1c(Cl)cccc1Cl", "note": "[diclofenac]", "values": [
      {"measurement": "effectiveness of NSAIDs on pain in this stage of the MIA model", "setting": "[3]", "value": "not effective"}
    ]},
    {"molecule": "CNCC[C@H](Oc1cccc2ccccc12)c1cccs1", "note": "[duloxetine, (S)—N-methyl-γ-(1-naphthalenyloxy)-2-thiophenepropanamine]", "values": [
      {"measurement": "improvement effect (inhibition rate) on pain behavior score", "setting": "[2]; rat, in vivo, po, 30 mg/kg", "value": 56, "unit": "%"}
    ]},
    {"molecule": "hyaluronan", "values": [
      {"measurement": "effectiveness in the bradykinin model", "setting": "[4]", "value": "effective"}
    ]},
    {"molecule": "C1=Cc2cccc(OCC3CNCCO3)c2C1", "note": "(single isomer, unassigned; (+)) [compound A hydrobromate, (+)-2-[(inden-7-yloxy)methyl]morpholine]", "values": [
      {"measurement": "improvement effect (inhibition rate) on the difference in hindlimb weight", "setting": "[5]", "value": 54, "unit": "%"},
      {"measurement": "improvement effect (inhibition rate) on the difference in hindlimb weight", "setting": "[1]; female Lewis rats, day after adjuvant, oral, 10 mg/kg, 1 hour after administration", "value": 65, "unit": "%"}
    ]},
    {"molecule": "C1=Cc2cccc(OCC3CNCCO3)c2C1", "note": "(single isomer, unassigned; (+)) [compound A benzenesulfonate, (+)-2-[(inden-7-yloxy)methyl]morpholine]", "values": [
      {"measurement": "improvement effect (inhibition rate) on pain behavior score", "setting": "[2]; male SD rats, oral, 10 mg/kg, bradykinin injected 1 hour after administration", "value": 55, "unit": "%"}
    ]}
  ]
}
